From the supplement of paper PMC11208160

Experiment: recombinant UMI read abundance after kanamycin selection (control-corrected) (log10(CPM+1)); higher = more efficient recombination; extreme values may be limits of the assay; sequences stand for … in AGTGCAGAGAAAATCGGCCAGTTTTCTCTGCCTGCAGTCCGCATGCCGTGGGACCCCTTGGGTTCTAACCTGTTGCCTAGATTTATGCAGCGGACTGCCTTTCTCCCAAAGTGATAAACCGG…AGGTTGGTTTCACT; site = the 11-nt donor
Experimental: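 Pooled E. coli donor-specificity screen for the IS621 bridge recombinase. Each library member carries a reprogrammed 11-nt donor and a full-length LE bridge RNA expressed in cis from the natural promoter, with a paired donor-binding loop (8-nt LDG + 4-nt RDG) and a target-binding loop fixed to T5. It is co-electroporated with a T5 target plasmid; recombinase is induced with 0.07 mM IPTG and recombinants are selected on kanamycin. UMIs are counted as CPM, averaged over two biological replicates and corrected by the unselected control. Molecule = full bridge RNA written as DNA, built from the T5 scaffold: LDG = donor specificity nt 1-8, RDG = reverse complement of nt 8-11.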
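Note: IS621 bridge recombinase in Escherichia coli cells against a fixed T5 target plasmid.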

Sequence	recombinant UMI read abundance (log10)
ACCGGACCATGGACCGGTTTTCCCGGTAATCCGTATTTGGC (site ACCGGACCTGC)	0
ACCGGTCCATGGACCGGTTTTCCCGGTAATCCGTATTTGCA (site ACCGGTCCTTG)	0
ACCGGTCCATGGACCGGTTTTCCCGGTAATCCGTATTTGCA (site CCCGGTCCTTG)	0
ACCGGTCCATGGACCGGTTTTCCCGGTAATCCGTATTTGCA (site GCCGGTCCTTG)	0
ACCGGTCCATGGACCGGTTTTCCCGGTAATCCGTATTTGCA (site TCCGGTCCTTG)	0
ACCGGTCCATGGACCGGTTTTCCCGGTAATCCGTATTTGTT (site ACCGGTCCTAA)	0
ACCTACGCATGGACCGGTTTTCCCGGTAATCCGTATTTGAA (site ACCTACGCTTT)	1.09
ACCTAGACATGGACCGGTTTTCCCGGTAATCCGTATTTGAG (site ACCTAGACTCA)	0.226
ACCTAGACATGGACCGGTTTTCCCGGTAATCCGTATTTGAG (site ACCTAGACTCC)	0.241
ACCTAGACATGGACCGGTTTTCCCGGTAATCCGTATTTGAG (site ACCTAGACTCG)	0.352
ACCTAGACATGGACCGGTTTTCCCGGTAATCCGTATTTGAG (site ACCTAGACTCT)	1.17
ACCTAGACATGGACCGGTTTTCCCGGTAATCCGTATTTGGT (site ACCTAGACTAC)	0.0673
ACCTAGACATGGACCGGTTTTCCCGGTAATCCGTATTTGGT (site ACCTAGACTCC)	0.0175
ACCTAGACATGGACCGGTTTTCCCGGTAATCCGTATTTGGT (site ACCTAGACTGC)	0
ACCTAGACATGGACCGGTTTTCCCGGTAATCCGTATTTGGT (site ACCTAGACTTC)	0.0137
ACCTCAGCATGGACCGGTTTTCCCGGTAATCCGTATTTGGG (site AACTCAGCTCC)	0.0172
ACCTCAGCATGGACCGGTTTTCCCGGTAATCCGTATTTGGG (site ACCTCAGCTCC)	0.00849
ACCTCAGCATGGACCGGTTTTCCCGGTAATCCGTATTTGGG (site AGCTCAGCTCC)	0.0171

Sequence	recombinant UMI read abundance (log10)
ACCTCAGCATGGACCGGTTTTCCCGGTAATCCGTATTTGGG (site ATCTCAGCTCC)	0.0291
ACCTCGTCATGGACCGGTTTTCCCGGTAATCCGTATTTGAA (site ACCTCGTCTTT)	0.5
ACCTGAACATGGACCGGTTTTCCCGGTAATCCGTATTTGGC (site ACCTGAACTGC)	1.39
ACCTTGCCATGGACCGGTTTTCCCGGTAATCCGTATTTGAA (site ACCTTGCCTTT)	0.00655
ACGAAAACATGGACCGGTTTTCCCGGTAATCCGTATTTGCA (site ACGAAAACTTG)	2.73
ACGAAAACATGGACCGGTTTTCCCGGTAATCCGTATTTGCA (site AGGAAGACTTG)	0
ACGAGAACATGGACCGGTTTTCCCGGTAATCCGTATTTGAG (site ACAAGAACTCT)	2.65
ACGAGAACATGGACCGGTTTTCCCGGTAATCCGTATTTGAG (site ACCAGAACTCT)	0.752
ACGAGAACATGGACCGGTTTTCCCGGTAATCCGTATTTGAG (site ACGAGAACTCT)	2.59
ACGAGAACATGGACCGGTTTTCCCGGTAATCCGTATTTGAG (site ACTAGAACTCT)	0.873
ACGATTGCATGGACCGGTTTTCCCGGTAATCCGTATTTGGA (site ACGATTGCTTC)	1.97
ACGCACACATGGACCGGTTTTCCCGGTAATCCGTATTTGAA (site ACGCACACTTT)	2.08
ACGCATCCATGGACCGGTTTTCCCGGTAATCCGTATTTGAC (site ACACATCCTGT)	1.31
ACGCATCCATGGACCGGTTTTCCCGGTAATCCGTATTTGAC (site ACCCATCCTGT)	0
ACGCATCCATGGACCGGTTTTCCCGGTAATCCGTATTTGAC (site ACGCATCCTGT)	1.8
ACGCATCCATGGACCGGTTTTCCCGGTAATCCGTATTTGAC (site ACTCATCCTGT)	0
ACGCCCTCATGGACCGGTTTTCCCGGTAATCCGTATTTGGG (site ACGCCCTCTCC)	0.119
ACGCGCCCATGGACCGGTTTTCCCGGTAATCCGTATTTGGT (site ACGCGCCCTAC)	0.771
